{
  "source": "patent US20250270205A1",
  "about": "“COMPOSITIONS AND METHODS FOR INHIBITING TREM-1” (AUGUSTA UNIVERSITY RESEARCH INSTITUTE, INC., priority 2020, published 2025)",
  "key": {"TREM-1 [1]": {"target": "T1, TREM-1 (Homo sapiens, UniProt Q9NP99)", "T1 sequence (Q9NP99 21-234)": "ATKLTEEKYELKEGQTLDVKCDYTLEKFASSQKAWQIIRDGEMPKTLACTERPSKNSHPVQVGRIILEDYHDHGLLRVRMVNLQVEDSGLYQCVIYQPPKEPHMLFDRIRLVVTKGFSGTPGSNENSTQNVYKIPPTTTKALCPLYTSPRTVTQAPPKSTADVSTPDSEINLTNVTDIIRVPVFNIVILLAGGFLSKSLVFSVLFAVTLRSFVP", "experiment": "TREM-1 reporter cell line blocking study (GFP expression by flow cytometry)", "type": "cell-based", "design": "expressed in transfected cells; host or cells: TREM-1 reporter cell line (GFP read-out)", "conditions": "for binding and activation of TREM-1 receptor on reporter cells (GFP expression): TREM-1-positive reporter cells, flow cytometry; for inhibitory effect on agonist-activated TREM-1-specific cells: preincubated with compound 4 hrs, then agonist antibody AF1278 for 24 hrs", "experimental": "FIG. 2A is a diagram showing that the engagement of human TREM-1 receptor activates a reporter cell line. […] FIG. 2C is a line graph of the flow cytometry data of FIG. 2B.\n(§1) For blocking studies, TREM-1-positive cells were preincubated with each tested compounds for 4 hrs followed by stimulation with agonist antibody AF1278 for an additional 24 hrs (FIGS. 2A-2B)."}, "neutrophils": {"test_system": "neutrophils", "experiment": "Assessment of cytotoxicity: number of neutrophils in TREM-1 agonist Ab-stimulated PBMCs", "conditions": "human PBMCs, compound at 50 μM 2 hrs pretreatment, TREM-1 agonist Ab 24 hrs", "procedure": "Peripheral blood mononuclear cells (PBMCs) were isolated from healthy volunteers and were stimulated with TREM-1 agonist Ab for 24 hrs, at concentration of 4 μg/ml (red) or pretreated with indicated compounds (at 50 μM) for 2 hrs and stimulated with agonist AB at concentration of 4 pg/mlfor 24 hrs (blue)"}, "reporter cells": {"test_system": "reporter cells", "experiment": "Cytotoxicity on TREM-1 reporter cells", "type": "cell-based", "conditions": "compared to Compound 118818", "experimental": "as §1"}, "B16F10 cells [2]": {"test_system": "B16F10 cells", "experiment": "CFSE cell proliferation assay", "type": "cell-based, murine", "conditions": "50 μM, 48 hrs; listed as VIDT", "experimental": "(§2) B16F10 cells were cultured in 6 well plates incubated with either vehicle alone or vehicle with VJDT at 50 μM and streaks were made using a tip when cells were at 80% confluency. Streaks were photographed at 0 hrs or 24 hrs at 100×. B16F10 cells were treated with VJDT at 50 μM concentration followed by 10 μM CFSE labeling according to manufacturer's protocol. After 48 hrs cells were analyzed by flow cytometry for CFSE intensity that will be inversely proportional to cell proliferation. Further, cell cycle assay via propidium iodide on B16F10 cells with or without VIDT treatment was performed for investigating the anti-proliferative effect of VJDT in tumor cells"}, "[3]": {"test_system": "Wild-type mice (Trem1+/+) with CCl4 injury", "experiment": "CCl4 liver injury, inflammatory cell infiltration at early stages of liver fibrosis", "type": "in vivo", "conditions": "25 mg/kg oral", "experimental": "Wild-type mice (Trem1^+/+) were orally administered VJDT (25 mg/kg) 5 consecutive days prior to injury with CCl4 (2 ml/kg, diluted 1:4 in corn oil) (24 hrs) or one dosage of control corn oil (Sigma-Aldrich, St. Louis, MO, USA). Liver cells were isolated 24 hrs after CCl4 injury, perfused with calcium and magnesium-free 40° C. prewarmed HBSS solution (Corning Life Sciences, Corning, NY, USA) and digested with collagenase type I. The cell suspension was filtered through a 70 μm cell strainer and then centrifuged at 50 g for 5 min at 4° C. to eliminate hepatocytes. Cells remaining in the supernatant were layered on HISTOPAQUE®-1083 and centrifuged at 1000 g for 15 min at 4° C. without a break. The non-parenchymal cell fraction was washed once with PBS at 300 g for 10 min at 4° C., followed by flow cytometry.\nNonparenchymal cells isolated from Trem1^+/+ livers with CCl4 injury receiving VJDT treatment were analyzed by flow cytometry to evaluate the infiltration of myeloid cells. Liver-associated cells were classified into 3 populations: F4/80^+CD11b^− resident Kupffer cells, F4/80^+CD11b^+Ly6C^hiLy6G^lo monocyte-derived macrophages and F4/80^+CD11b^+Ly6C^loLy6G^hi inflammatory neutrophils."}, "TREM-1 [4]": {"target": "T1, TREM-1", "experiment": "TREM-1-mediated proinflammatory cytokine production by activated human neutrophils (flow cytometry)", "type": "cell-based", "design": "endogenous in cells; host or cells: PBMCs from healthy human volunteers, gated on CD15/CD16 neutrophils", "conditions": "IL-8, IL-6, IL-12 intracellular staining, vs MH and NCI 118818", "experimental": "Quantification (percentage) of cytokine-positive neutrophils from untreated, Morin Hydrate (MH)-treated, 118818-treated, and VJDT 8293-treated compounds (from triplicates) was performed. Cells isolated from the same healthy volunteer have been used for indicated experiments.\nPBMCs were stained cell surface markers CD15 and CD16. In addition, intracellular staining for proinflammatory cytokines, such as IL-8, IL-6 and IL-12, was performed. PBMCs were gated on CD15, CD16 markers to identify the population of neutrophils."}, "B16F10 cells [5]": {"test_system": "B16F10 cells", "experiment": "Cell cycle assay via propidium iodide", "type": "cell-based, murine", "conditions": "B16F10 cells with or without treatment", "experimental": "as §2"}, "[6]": {"test_system": "B16F10 murine melanoma cell", "experiment": "Wound healing assay (cell migration)", "type": "cell-based", "conditions": "50 μM, 24 hrs", "experimental": "as §2"}, "[7]": {"test_system": "human hepatocellular carcinoma cells (HepG2)", "experiment": "Cell proliferation, Cell Counting Kit-8 (CCK-8)", "type": "cell-based", "conditions": "HepG2, 72 hrs treatment, n=6, read-out: IC50 to inhibit cell proliferation", "experimental": "Cell proliferation was measured using Cell Counting Kit-8 (CCK-8, GLPBIO, Montclair, CA. Catalog No. GK10001) according to the manufacturer's instructions. HepG2 cells were seeded in a 96-well plate at 3×10^3 cells/well and incubated at 37° C. in complete medium for 24 hrs before being treated with the indicated concentrations of VIDT for 72 hrs. After treatment, cells were incubated with 10 μl CCK8 at 37° C. for 2 hrs. Absorbance at 450 nm was determined using a microplate reader. The IC50 value was calculated on the nonlinear regression fit method by the GraphPad Prism software."}},
  "data": [
    {"smiles": "N#CC1=CC2CN(Cc3ccccc3)C1C1C(=O)N(c3ccccc3)C(=O)C21", "note": "(stereo not shown) [Compound 118818, 9-Benzyl-1,3-dioxo-2-phenyl-2,3,3a,4,7,7a-hexahydro-1H-4,7-(epiminomethano) isoindole-5-carbonitrile]", "values": [
      {"measurement": "binding and activation of TREM-1 receptor on reporter cells (GFP expression)", "setting": "TREM-1 [1]", "value": "significant enhancement of GFP expression"},
      {"measurement": "number of neutrophils (indicating level of cytotoxicity)", "setting": "neutrophils", "value": "19,5%"}
    ]},
    {"smiles": "O=C(O)Cc1ccc(N=Nc2c(O)c(C(=O)O)cc3ccccc23)cc1", "note": "[compound 156563]", "values": [
      {"measurement": "binding and activation of TREM-1 receptor on reporter cells (GFP expression)", "setting": "TREM-1 [1]", "value": "significant enhancement of GFP expression"},
      {"measurement": "inhibitory effect on agonist-activated TREM-1-specific cells", "setting": "TREM-1 [1]", "value": "did not provide any inhibitory effect"}
    ]},
    {"smiles": "Cc1c(O)ccc2c(O)c(NC(=O)c3ccc4c(c3)CCC(C)(C)O4)c(=O)oc12", "note": "[compound 5157]", "values": [
      {"measurement": "binding and activation of TREM-1 receptor on reporter cells (GFP expression)", "setting": "TREM-1 [1]", "value": "significant enhancement of GFP expression"},
      {"measurement": "inhibitory effect on agonist-activated TREM-1-specific cells", "setting": "TREM-1 [1]", "value": "did not provide any inhibitory effect"}
    ]},
    {"smiles": "O=c1c(O)c(-c2ccc(O)cc2O)oc2cc(O)cc(O)c12", "note": "[Morin Hydrate, 2′,3,4′,5,7-pentahydroxyflavone]", "values": [
      {"measurement": "number of neutrophils (indicating level of cytotoxicity)", "setting": "neutrophils", "value": 24.3, "unit": "%"}
    ]},
    {"smiles": "Cc1ccc(NC(=O)Nc2nc3ccccc3s2)cc1NC(=O)Nc1nc2ccccc2s1", "note": "[Compound 319990]", "values": [
      {"measurement": "cytotoxicity effect on reporter cells", "setting": "reporter cells", "value": "higher cytotoxicity effect"},
      {"measurement": "binding and activation of TREM-1 receptor on reporter cells (GFP expression)", "setting": "TREM-1 [1]", "value": "significant enhancement of GFP expression"}
    ]},
    {"smiles": "N#CC1=CC2C(=O)N(Cc3ccccc3)C1C1C(=O)N(c3ccccc3)C(=O)C21", "note": "[VJDT 8293, (3aR,7aR)-9-benzyl-1,3,8-trioxo-2-phenyl-2,3,3a,4,7,7a-hexahydro-1H-4,7-(epiminomethano) isoindole-5-carbonitrile]", "values": [
      {"measurement": "cell proliferation (CFSE intensity)", "setting": "B16F10 cells [2]", "value": "significantly inhibites"},
      {"measurement": "infiltration of monocyte-derived macrophages in liver", "setting": "[3]; 5 consecutive days prior to CCl4 (2 ml/kg), 24 hrs after injury, p<0.001", "value": "3-6%"},
      {"measurement": "infiltration of inflammatory neutrophils in liver", "setting": "[3]; 5 consecutive days prior to CCl4 (2 ml/kg), 24 hrs after injury, p<0.01", "value": "8-10%"},
      {"measurement": "protective effect to liver injury", "setting": "[3]; CCl4 injury", "value": "strong protective effect"},
      {"measurement": "cytokine secretion in neutrophils", "setting": "[3]; compared to control group (DMSO vehicle)", "value": "significantly decreased cytokine secretion"},
      {"measurement": "inhibitory effect on TREM-1 mediated proinflammatory cytokine production", "setting": "TREM-1 [4]", "value": "much stronger inhibitory effect"},
      {"measurement": "cell cycle arrest", "setting": "B16F10 cells [5]", "value": "significant cell cycle arrest in the S and G2 phases"},
      {"measurement": "cell migration in wound healing assay", "setting": "[6]", "value": "significantly inhibits"},
      {"measurement": "cell migration in wound healing assay", "setting": "[6]; listed as VIDT", "value": "significantly inhibited"},
      {"measurement": "IC50", "setting": "[7]", "value": 14.7, "unit": "µM"}
    ]}
  ]
}
